Measurements: article PMC7534897 (Bioorganic & Medicinal Chemistry Letters, 2020)
Values after ≈ are worked out from the molar mass of the structure shown. Like-named read-outs stand apart in the source and are kept apart here.

Experiments:
[1] = tested on: Enterovirus 71 (Tainin/4643/98 strain); assay: Inhibition of EV-A71 replication in Vero 76 cells; assay type: cell-based, Enterovirus A71; conditions: for EC50: Enterovirus A
[2] = tested on: Enterovirus 68 (US/KY/14–18953 strain); assay: Inhibition of enterovirus 68 in RD cells; assay type: cell-based; conditions: Enterovirus D, read-out: EC50/90 values against enterovirus 68, range
A1 adenosine receptor = conditions: cited from earlier work
[3] = tested on: coxsackie virus B3, enterovirus 68 and poliovirus 1; assay: organism not typed; assay type: cell-based; conditions: read-out: EC50 values, range over three viruses
A3 adenosine receptor = conditions: read-out: Ki, A3 adenosine receptor; binds as an agonist; cited from earlier work
EV-A71 = conditions: read-out: EC50, EV-A71; cited from earlier work
EV-71A = conditions: cited from earlier work

For `OC[C@H]1O[C@@H](n2cnc3c(NC(C4CC4)C4CC4)ncnc32)[C@H](O)[C@@H]1O` [Compound 10], the “Activity against EV-A71 in words” value [1] was “inactive”.
With `CC(C)[C@@H](Nc1nc(Cl)nc2c1ncn2[C@H]1[C@H](O)[C@H](O)[C@]2(CN)C[C@H]12)C1CC1` [Compound 52, (1R,2R,3S,4R,5S)-1-(Aminomethyl)-4-(2-chloro-6-((1-cyclopropyl-2-methylpropyl)amino)-9H-purin-9-yl)bicyclo[3.1.0]hexane-2,3-diol] the “Activity against EV-A71 in words” value [1] was “reduced inhibition”.
`CCOC(=O)c1ccc(OCCC2CCN(c3ccc(C)nn3)CC2)cc1` [Compound 8, Pirodavir, reference compound] gave an EC50 ([1]; Vero 76, read-out: EC50 values of pirodavir, range (neutral red)) of 0.056 to 0.22 µg/mL and an EC50 ([1]; Vero 76, read-out: EC50 values of pirodavir, range (visual)) of 0.036 to 0.32 µg/mL.
For `CSC[C@@]12C[C@@H]1[C@@H](n1cnc3c(N[C@H](C(C)C)C4CC4)nc(Cl)nc31)[C@H](O)[C@@H]2O` [Compound 50, (1S,2R,3S,4R,5S)-4-(2-Chloro-6-((1-cyclopropyl-2-methylpropyl)amino)-9H-purin-9-yl)-1-((methylthio)methyl)bicyclo[3.1.0]hexane-2,3-diol], the “Activity against EV-A71 in words” value [1] was “reduced inhibition”.
With `CC(C)[C@H](Nc1nc(Cl)nc2c1ncn2[C@H]1[C@H](O)[C@H](O)[C@]2(CO)C[C@H]12)C1CC1` [Compound 21] the “Activity against EV-A71 in words” value [1] was “Intermediate potency”.
With `OC[C@@]12C[C@@H]1[C@@H](n1cnc3c(NC(C4CCC4)C4CCC4)nc(Cl)nc31)[C@H](O)[C@@H]2O` [Compound 30] the “Activity against EV-A71 in words” value [1] was “prevented inhibition”.
For `CC(C)[C@@H](Nc1nc(Cl)nc2c1ncn2[C@H]1[C@H](O)[C@H](O)[C@]2(CF)C[C@H]12)C1CC1` [Compound 48, (1S,2R,3S,4R,5S)-4-(2-Chloro-6-((1-cyclopropyl-2-methylpropyl)amino)-9H-purin-9-yl)-1-(fluoromethyl)bicyclo[3.1.0]hexane-2,3-diol], the EC50 [2] was 8 to 16 µM, the “Activity against EV-A71 in words” value [1] was “intermediate potency” and the EC50 ([1]; Vero 76, read-out: Visual EC50) was 3.6 µM.
With `NC(=O)c1ncn([C@H]2[C@H](O)[C@H](O)[C@]3(CO)C[C@H]23)n1` [Compound 9] the “Activity against EV-A71 in words” value ([1]; at 50 µM, higher concentrations not tested) was “inactive”.
In the case of `CC(C)[C@@H](Nc1nc(Cl)nc2c1ncn2[C@H]1[C@H](O)[C@H](O)[C@]2(CN=[N+]=[N-])C[C@H]12)C1CC1` [Compound 51, (1R,2R,3S,4R,5S)-1-(Azidomethyl)-4-(2-chloro-6-((1-cyclopropyl-2-methylpropyl)amino)-9H-purin-9-yl)bicyclo[3.1.0]hexane-2,3-diol], the “Activity against EV-A71 in words” value [1] is reported as “intermediate potency”.
With `O[C@@H]1[C@H](O)[C@@H]2C[C@@H]2[C@H]1n1cnc2c(NC(C3CC3)C3CC3)nc(Cl)nc21` [Compound 31] the EC50 [2] was 8 to 16 µM and the “SI (selectivity index) at EV-A71” value ([1]; visual and neutral red methods) was ≥ 10.
With `O[C@@H]1[C@H](O)[C@@H]2C[C@@H]2[C@H]1n1cnc2c(NC(C3CCC3)C3CCC3)nc(Cl)nc21` [Compound 42] the EC50 ([1]; Vero 76, read-out: Visual EC50) was > 16 µM.
For `CC(C)[C@@H](Nc1nc(Cl)nc2c1ncn2[C@H]1[C@H](O)[C@H](O)[C@]2(CO)C[C@H]12)C1CC1` [Compound 17], the Ki (A1 adenosine receptor; read-out: Ki, A1 adenosine receptor, binds as an agonist) is listed as 0.103 µM, the EC50 [3] is listed as 16 to 32 µM and the Ki (A3 adenosine receptor) is listed as 1.24 µM.
Compound `CC[C@@H](Nc1nc(SC)nc2c1ccn2[C@H]1[C@H](O)[C@H](O)[C@]2(CO)C[C@H]12)C1CC1` [Compound 26] has an EC50 ([1]; Vero 76, read-out: Visual EC50) of 16 µM.
For `OC[C@H]1O[C@@H](n2cnc3c(NC(C4CCC4)C4CCC4)ncnc32)[C@H](O)[C@@H]1O` [Compound 11], the Ki (A1 adenosine receptor; read-out: Ki, A1 receptor) is listed as < 0.01 µM and the “Activity against EV-A71 in words” value [1] is listed as “inactive”.
In the case of `OC[C@H]1O[C@@H](n2cnc3c(NCc4ccccc4)ncnc32)[C@H](O)[C@@H]1O` [Compound 6, N ^6-benzyl-adenosine], the EC50 (EV-A71) is listed as 5 µM.
With `CCOC(=O)[C@@]12C[C@@H]1[C@@H](n1cnc3c(NC(C4CC4)C4CC4)nc(Cl)nc31)[C@H](O)[C@@H]2O` [Compound 44] the “Activity against EV-A71 in words” value [1] was “inactive”.
For `CC[C@H](Nc1nc(Cl)nc2c1ncn2[C@H]1[C@H](O)[C@H](O)[C@]2(CO)C[C@H]12)C1CC1` [Compound 27], the EC50 ([1]; Vero 76, read-out: Visual EC50) was 16 µM.
In the case of `NC(=O)c1ncn([C@@H]2O[C@H](CO)[C@@H](O)[C@H]2O)n1` [Compound 5, ribavirin], the “IC50, EV-71A viral yield in infected cells” value (EV-71A) is listed as 65 µg/mL (≈ 266 µM) and the IC50 (EV-71A; read-out: IC50, EV-71A viral yield in infected cells) is listed as 266 µM.
In the case of `CSc1nc(N[C@H](C(C)C)C2CC2)c2ncn([C@H]3[C@H](O)[C@H](O)[C@]4(CO)C[C@H]34)c2n1` [Compound 20, (1R,2R,3S,4R,5S)-4-(6-((1-Cyclopropyl-2-methylpropyl)amino)-2-(methylthio)-9H-purin-9-yl)-1-(hydroxymethyl)bicyclo[3.1.0]hexane-2,3-diol], the EC50 ([1]; Vero 76, read-out: Visual EC50) is reported as > 100 µM.
In the case of `OC[C@H]1O[C@@H](n2cnc3c(NC(C4CCC4)C4CCC4)nc(Cl)nc32)[C@H](O)[C@@H]1O` [Compound 12], the Ki (A1 adenosine receptor; read-out: Ki, A1 receptor) is listed as < 0.01 µM.
For `CC(C)[C@@H](Nc1nc(Cl)nc2c1ncn2[C@H]1[C@H](O)[C@H](O)[C@]2(CCl)C[C@H]12)C1CC1` [Compound 49, (1S,2R,3S,4R,5S)-4-(2-Chloro-6-((1-cyclopropyl-2-methylpropyl)amino)-9H-purin-9-yl)-1-(chloromethyl)bicyclo[3.1.0]hexane-2,3-diol], the “Activity against EV-A71 in words” value [1] was “intermediate potency”.
In the case of `OC[C@@]12C[C@@H]1[C@@H](n1cnc3c(NC(C4CC4)C4CC4)nc(Cl)nc31)[C@H](O)[C@@H]2O` [Compound 16], the “Activity against EV-A71 in words” value [1] is reported as “Intermediate potency”.
